Test results as given in PubChem BioAssay (NCI).
Values joined by “and” are separate entries in the source; they are usually repeats but may differ in a detail not shown here. Equal values may be shown once.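 Where inhibition never reached the appropriate level, the endpoint shown equals the highest concentration tested. Otherwise, values were interpolated linearly from a five-concentration, 48-hour dose response in 96-well plates. GI50: concentration for 50% inhibition of growth. The concentration for full growth arrest is given as TGI.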

Assays:
Experiment in all cases: inhibition of tumour cell growth, NCI panel, 48 h; in the data active means GI50 below about 0.43 µM; inactive means the rest
[1] = test system: OVCAR-5 ovarian
[2] = test system: A498 renal
[3] = test system: EKVX NSCLC
[4] = test system: SK-MEL-2 melanoma
[5] = test system: NCI-H23 lung
[6] = test system: M14 melanoma
[7] = test system: SW-620 colon
[8] = test system: OVCAR-4 ovarian
[9] = test system: NCI/ADR-RES ovarian
[10] = test system: UO-31 renal
[11] = test system: ACHN renal
[12] = test system: LOX IMVI melanoma
[13] = test system: UACC-62 melanoma
[14] = test system: OVCAR-3 ovarian
[15] = test system: MDA-MB-231 breast
[16] = test system: HT29 colon
[17] = test system: CCRF-CEM leukemia
[18] = test system: HOP-92 NSCLC
[19] = test system: RPMI-8226 leukemia
[20] = test system: MALME-3M melanoma
[21] = test system: HCC-2998 colon
[22] = test system: 786-0 renal
[23] = test system: SF-539 CNS
[24] = test system: SK-MEL-5 melanoma
[25] = test system: SF-268 CNS
[26] = test system: PC-3 prostate
[27] = test system: A549 NSCLC
[28] = test system: SN12C renal
[29] = test system: HOP-62 NSCLC
[30] = test system: SF-295 CNS
[31] = test system: U251 CNS
[32] = test system: T-47D breast
[33] = test system: KM12 colon
[34] = test system: HCT-15 colon
[35] = test system: SK-OV-3 ovarian
[36] = test system: DU-145 prostate
[37] = test system: OVCAR-8 ovarian
[38] = test system: MOLT-4 leukemia
[39] = test system: NCI-H226 lung
[40] = test system: SK-MEL-28 melanoma
[41] = test system: COLO 205 colon
[42] = test system: K-562 leukemia
[43] = test system: MDA-MB-435
[44] = test system: SNB-75 CNS
[45] = test system: RXF 393 renal
[46] = test system: HS 578T breast
[47] = test system: HCT-116 colon
[48] = test system: CAKI-1 renal
[49] = test system: MCF7 breast
[50] = test system: UACC-257 melanoma
[51] = test system: NCI-H460 lung
[52] = test system: NCI-H522 lung
[53] = test system: TK-10 renal
[54] = test system: HL-60(TB) leukemia
[55] = test system: IGROV1 ovarian
[56] = test system: BT-549 breast
[57] = test system: SNB-19 CNS

O=C(Cc1ccc(-c2ccc(OCCN3CCOCC3)cc2)cn1)NCc1ccccc1
220 nM and 1250 nM: TGI [24]
49.7 nM: TGI [45]
> 50200 nM: TGI [19]
94900 nM and > 10000 nM: TGI [50]
331 nM and 82.2 nM: TGI [2]
83.1 nM: TGI [52]
> 36200 nM: TGI [37]
39.2 nM: TGI [43]
> 100000 nM: TGI [1] | TGI [3] | TGI [4] | TGI [5] | TGI [7] | TGI [8] | TGI [9] | TGI [10] | TGI [11] | TGI [12] | TGI [13] | TGI [15] | TGI [17] | TGI [20] | TGI [22] | TGI [25] | TGI [26] | TGI [27] | TGI [28] | TGI [30] | TGI [31] | TGI [34] | TGI [38] | TGI [39] | TGI [40] | TGI [42] | TGI [44] | TGI [46] | TGI [47] | TGI [48] | TGI [49] | TGI [53] | TGI [55] | TGI [57]
> 37600 nM: TGI [16]
> 88400 nM: TGI [29]
85.8 nM and 632 nM: TGI [41]
1760 nM: TGI [6]
7010 nM and > 10000 nM: TGI [35]
8590 nM and > 7160 nM: TGI [18]
112 nM and 711 nM: GI50 [50]
55900 nM and > 10000 nM: TGI [32]
active: GI50 [1] 60.5 nM and 119 nM | GI50 [2] 24.7 nM and 27.7 nM | GI50 [4] 105 nM and 60 nM | GI50 [5] 45.8 nM and 49.3 nM | GI50 [6] 28.5 nM | GI50 [7] 37.6 nM and 38.8 nM | GI50 [9] 33.4 nM and 34.1 nM | GI50 [10] 82.1 nM and 200 nM | GI50 [11] 85.7 nM and 81.1 nM | GI50 [12] 61.2 nM and 63.6 nM | GI50 [13] 40.8 nM | GI50 [14] 35.2 nM | GI50 [15] 57.7 nM and 83.3 nM | GI50 [16] 34.3 nM and 34.2 nM | GI50 [17] 39.7 nM and 43.3 nM | GI50 [18] 54.3 nM and 353 nM | GI50 [19] 42.7 nM and 35.8 nM | GI50 [20] 150 nM | GI50 [21] 31.6 nM and 166 nM | GI50 [22] 67.5 nM and 85.7 nM | GI50 [23] 28.3 nM and 30.1 nM | GI50 [24] 28.6 nM and 39.9 nM | GI50 [25] 83 nM and 332 nM | GI50 [26] 44.6 nM and 45.6 nM | GI50 [27] 40.5 nM and 53.7 nM | GI50 [28] 84.5 nM and 61.1 nM | GI50 [29] 37.2 nM and 66 nM | GI50 [30] 29.6 nM and 34.7 nM | GI50 [31] 41.7 nM and 37.7 nM | GI50 [33] 32 nM and 38.7 nM | GI50 [34] 29.4 nM and 38.7 nM | GI50 [35] 30.3 nM and 54.9 nM | GI50 [36] 32.4 nM and 38.7 nM | GI50 [37] 46.6 nM and 49.3 nM | GI50 [38] 99.9 nM and 68.5 nM | GI50 [39] 244 nM and 112 nM | GI50 [40] 46.2 nM and 211 nM | GI50 [41] 29.1 nM and 36.1 nM | GI50 [42] 25.5 nM and 26.4 nM | GI50 [43] 16.2 nM | GI50 [44] 33.3 nM and 21.8 nM | GI50 [45] 10.8 nM | GI50 [46] 38.1 nM and 28.4 nM | GI50 [47] 37.3 nM and 39.9 nM | GI50 [48] 70.3 nM and 50.6 nM | GI50 [49] < 16.4 nM and 35.6 nM | GI50 [51] 35.5 nM and 37.1 nM | GI50 [52] 22.3 nM and 24.2 nM | GI50 [54] 29.4 nM and 30.9 nM | GI50 [55] 94.4 nM and 70.8 nM | GI50 [56] 159 nM and 76.7 nM | GI50 [57] 52.8 nM and 44.8 nM
> 7880 nM: TGI [33]
16200 nM and > 10000 nM: TGI [51]
